Data set [1] can be described thus: Metabolic stability in human liver microsomes by high-throughput screening based assay. The note with it: read-out: Stability. Format: ADME, microsome.
A short description of data set [2]: Effective permeability of the compound by PAMPA. The class given is ADME. The note with it: read-out: Peff. For orientation: PAMPA measures passive passage across an artificial lipid membrane.
Data set [3] is described as follows: Metabolic stability in mouse liver microsomes by high-throughput screening based assay. Format: ADME, microsome. The note with it: read-out: Stability. (Liver microsomes are a subcellular fraction often used to study metabolism.)
Data set [4] in a line: Volume of distribution at steady state in ICR mouse at 1 mg/kg, iv. The class given is ADME, organism-based. The note with it: in vivo, read-out: Vdss.
The nature of data set [5]: Tmax in ICR mouse at 12.2 mg/kg, po. Format: ADME, organism-based. The conditions noted are these: in vivo.
The test system of data set [6] is Mus musculus. Briefly: Oral bioavailability in ICR mouse at 12.2 mg/kg. The note with it: in vivo. The class given is ADME, organism-based.
Data set [7] concerns Mus musculus. Put plainly: AUC (0 to 24 hrs) in ICR mouse at 12.2 mg/kg, po. Format: ADME, organism-based. The note with it: in vivo. Details: dose 12.2 mg/kg, time < 24 hr, route oral.
Data set [8] is described as follows: Cmax in ICR mouse at 1 mg/kg, iv. The class given is ADME, organism-based. Details: dose 1 mg/kg, route intravenous. The note with it: in vivo.
Data set [9] can be described thus: Cmax in ICR mouse at 12.2 mg/kg, po. The class given is ADME, organism-based. Details: dose 12.2 mg/kg, route oral. The note with it: in vivo.
Data set [10] can be described thus: Metabolic stability in rat liver microsomes by high-throughput screening based assay. The class given is ADME, microsome. The conditions noted are these: read-out: Stability.
In data set [11] the test system is Mus musculus. Put plainly: AUC (0 to 24 hrs) in ICR mouse at 1 mg/kg, iv. The conditions noted are these: in vivo. The class given is ADME, organism-based. Details: time < 24 hr, dose 1 mg/kg, route intravenous.
Data set [12] in a line: Cmax in rat at 1 mg/kg, iv. The conditions noted are these: in vivo. Details: dose 1 mg/kg, route intravenous. The class given is ADME, organism-based.
The test system of another data set is Rattus norvegicus. Briefly: AUC (0 to 24 hrs) in rat at 1 mg/kg, iv. The class given is ADME, organism-based. Also on record: dose 1 mg/kg, time < 24 hr, route intravenous. The conditions noted are these: in vivo.
Data set [13] in a line: AUC (0 to 24 hrs) in rat at 5 mg/kg, po. Format: ADME, organism-based. Also on record: dose 5 mg/kg, time < 24 hr, route oral. The note with it: in vivo.
Data set [14] is described as follows: Tmax in rat at 5 mg/kg, po. Format: ADME, organism-based. The note with it: in vivo.
Data set [15] in a line: Half life in rat at 1 mg/kg, iv. The class given is ADME, organism-based. The note with it: in vivo.
A short description of data set [16]: Cmax in rat at 5 mg/kg, po. The class given is ADME, organism-based. Also on record: dose 5 mg/kg, route oral. The conditions noted are these: in vivo.
Data set [17] can be described thus: Volume of distribution at steady state in rat at 1 mg/kg, iv. The class given is ADME, organism-based. The note with it: in vivo, read-out: Vdss.
Data set [18] in a line: Oral bioavailability in rat at 5 mg/kg. The class given is ADME, organism-based. The note with it: in vivo.
Data set [19] can be described thus: Volume of distribution at steady state in ICR mouse at 2 mg/kg, iv. Format: ADME, organism-based. The conditions noted are these: in vivo, read-out: Vdss.
Data set [20] is described as follows: Cmax in ICR mouse at 2 mg/kg, iv. Format: ADME, organism-based. Also on record: dose 2 mg/kg, route intravenous. The note with it: in vivo.
The test system of data set [21] is Mus musculus. Put plainly: Oral bioavailability in ICR mouse at […]. The class given is ADME, organism-based. The note with it: in vivo.
Data set [22] in a line: Cmax in ICR mouse at […], po. The conditions noted are these: in vivo. Format: ADME, organism-based. Also on record: dose 8.3 mg/kg, route oral.
A short description of data set [23]: Half life in ICR mouse at 2 mg/kg, iv. The note with it: in vivo. Format: ADME, organism-based.
A short description of data set [24]: Tmax in ICR mouse at […], po. Format: ADME, organism-based. The conditions noted are these: in vivo.
Data set [25] deals with Mus musculus. Put plainly: AUC (0 to 24 hrs) in ICR mouse at […], po. Also on record: time < 24 hr, dose 8.3 mg/kg, route oral. The conditions noted are these: in vivo. Format: ADME, organism-based.
The nature of data set [26]: Plasma clearance in ICR mouse at 2 mg/kg, iv. The class given is ADME, organism-based.
Data set [27] deals with Mus musculus. Put plainly: (§1) AUC (0 to 24 hrs) in ICR mouse at 2 mg/kg, iv. The class given is ADME, organism-based. Also on record: time < 24 hr, dose 2 mg/kg, route intravenous. The conditions noted are these: in vivo, 24 h.
Data set [28] can be described thus: Half life in ICR mouse at […], po. The class given is ADME, organism-based. The note with it: in vivo.
A short description of data set [29]: Cmax in ICR mouse at 10 mg/kg, po. Format: ADME, organism-based. The conditions noted are these: in vivo. Also on record: dose 10 mg/kg, route oral.
Data set [30] in a line: AUC (0 to 24 hrs) in ICR mouse at 10 mg/kg, po. Format: ADME, organism-based. Also on record: time < 24 hr, dose 10 mg/kg, route oral. The note with it: in vivo.
The nature of data set [31]: as §1. Format: ADME, organism-based. Also on record: time < 24 hr, dose 2 mg/kg, route intravenous. The note with it: ICR, in vivo.
The nature of data set [32]: Tmax in ICR mouse at 10 mg/kg, po. The class given is ADME, organism-based. The conditions noted are these: in vivo.
Data set [33] is described as follows: Half life in ICR mouse at 10 mg/kg, po. Format: ADME, organism-based. The note with it: in vivo.
Data set [34] in a line: Oral bioavailability in ICR mouse at 10 mg/kg. Format: ADME, organism-based. The note with it: in vivo.

The term Tmax denotes the time at which the peak concentration occurs. Broadly, the AUC is the area under the concentration-time curve, a measure of exposure. Lower therefore signals less exposure. The term Cmax denotes the maximum level reached in the sampled fluid or tissue. As usually defined, the AUC(0-t) is exposure summed from dosing to a finite time, without extrapolation to infinity. The low end stands for low exposure, the high end for high exposure. As a reminder, the half-life is the time in which the quantity being followed falls by half. Lower therefore signals fast loss. A word on the bioavailability: it is dose-corrected exposure relative to a reference, in per cent. As usually defined, the clearance is the volume of plasma or blood freed of the substance per unit of time.

Each structure is given as a SMILES string.

With `CS(=O)(=O)CCn1c(Cn2cc(S(C)(=O)=O)c3ccccc32)nc2ccccc21`, the CLhep predicted in data set [1] is 7.33 to 9 mL/min/kg; in data set [3], 19.7 mL/min/kg. The Papp in [2] stood at 4.87 ×10⁻⁶ cm/s.
Regarding `CS(=O)(=O)c1nn(Cc2nc3cc(Cl)ccc3n2CC2COC2)c2cnccc12`, the Vd in data set [4] was 0.88 L/kg. Moreover, the CLhep predicted in data set [1] is 3.9 mL/min/kg; in data set [3], 9 mL/min/kg; in [10] it was 19.8 mL/min/kg. Further, the Papp in [2] was found to be 3.22 ×10⁻⁶ cm/s. In addition, the Tmax in data set [5] came to 0.5 h. Also, the F in the data set with Mus musculus [6] came to 23.8%. For the same compound, the results for the AUC with Mus musculus [7] and in the data set with Mus musculus [11] were 989 ng·h/mL and 2870 ng·h/mL, respectively. Moreover, the Cmax in [8] turned out to be 1270 ng/mL; in [9], 972 ng/mL.
Consider `CS(=O)(=O)c1nn(Cc2nc3cc(Cl)ccc3n2CCC(O)C(F)(F)F)c2cnccc12` (stereo not drawn), for which the CLhep predicted in data set [1] was 4.51 mL/min/kg; in [3] it was 26.5 mL/min/kg; in data set [10], 18 mL/min/kg. Moreover, the Papp in data set [2] was 4.29 ×10⁻⁶ cm/s.
For `CS(=O)(=O)CCCn1c(Cn2nc(S(C)(=O)=O)c3ccncc32)nc2cc(Cl)ccc21` the same measures were 11.3 mL/min/kg, 75.5 mL/min/kg, 39.9 mL/min/kg and 1.55 ×10⁻⁶ cm/s.
Turning to `CS(=O)(=O)CCCn1c(Cn2cc(S(C)(=O)=O)c3ccccc32)nc2cc(Cl)ccc21`, the Cmax in data set [12] amounted to 371 ng/mL; in data set [16], 4.05 ng/mL. Further, the AUC in the data set with Rattus norvegicus is 294 ng·h/mL. Besides, in data set [13], the AUC(0-t) at 24 h was 21.4 ng·h/mL. Moreover, the CLhep predicted is 0.66 mL/min/kg in [1], 34 mL/min/kg in data set [3] and 1.33 mL/min/kg in [10]. In data set [2], the Papp lay within 1.55 to 2.36 ×10⁻⁶ cm/s. Moreover, the time of peak concentration (Tmax) in data set [14] was determined as 4.67 h. Besides, the half-life in data set [15] is 0.674 h. In [17], the Vd is 2.71 L/kg. The bioavailability in [18] was found to be 1.46%.
For the compound `CS(=O)(=O)c1nn(Cc2nc3cc(Cl)ccc3n2CCC(F)(F)F)c2cnccc12`, the Vd in data set [19] was 1.04 L/kg. Also, the figures for the Cmax in data set [20] and in data set [22] were 1940 ng/mL and 589 ng/mL, respectively. Further, the F in the data set on Mus musculus [21] was 42.8%. Moreover, the results for the CLhep predicted in data set [1], in data set [3] and in [10] were 1.09 mL/min/kg, 18 mL/min/kg and 0.28 mL/min/kg, respectively. The Papp in data set [2] is 2.81 ×10⁻⁶ cm/s. Besides, the half-life in [23] was 1.03 h; in data set [28], 3.16 h. Further, the Tmax in data set [24] came to 1 h. The AUC in the data set on Mus musculus [25] stood at 2730 ng·h/mL; with Mus musculus [27], 4830 ng·h/mL. Moreover, the clearance in data set [26] is 12.2 mL/min/kg.
Take `CS(=O)(=O)CCCc1c(CN2C(=O)C3(CC3)c3ccncc32)nc2cc(Cl)ccn12`: the CLhep predicted was 11.7 mL/min/kg in data set [1] and 83.3 mL/min/kg in data set [3].
For the compound `CS(=O)(=O)c1nn(Cc2nc3cc(Cl)ccc3n2CCCCC(F)(F)F)c2cnccc12`, the CLhep predicted was 4.57 mL/min/kg in [1], 22.7 mL/min/kg in data set [3] and 6.15 mL/min/kg in data set [10]. Moreover, in [2], the Papp amounted to 0.95 ×10⁻⁶ cm/s.
In the case of `CC(C)(O)CCCn1c(Cn2nc(S(C)(=O)=O)c3ccncc32)nc2cc(Cl)ccc21`, the Vd in data set [19] amounted to 1.09 L/kg. Besides, the Cmax in data set [20] stood at 1300 ng/mL; in [29] it was 340 ng/mL. Moreover, the CLhep predicted in [1] was 5.17 mL/min/kg; in data set [3], 20.7 mL/min/kg; in data set [10], 2.96 mL/min/kg. Moreover, the Papp in data set [2] was determined as 2.57 ×10⁻⁶ cm/s. In addition, the half-life is 0.242 h in data set [23] and 5.11 h in data set [33]. Besides, the figures for the AUC(0-t) at 24 h in data set [30] and in data set [31] were 809 ng·h/mL and 552 ng·h/mL, respectively. The compound further had a clearance in [26] of 60.4 mL/min/kg. Besides, in data set [32], the Tmax is 0.25 h. In data set [34], this compound returned a bioavailability of 29.3%.

These data come from ChEMBL document CHEMBL4130376, “Discovery of methylsulfonyl indazoles as potent and orally active respiratory syncytial Virus(RSV) fusion inhibitors” (Eur J Med Chem, 2017).
